Consider 41 compounds from patent EP0539588A1, “AMINE DERIVATIVE” (NIPPON SODA CO., LTD., priority 1990, dated 1992).

The first data set concerns resistant-strain of planthoppers for organophosphate and carbamate insecticides. Nature of the data set: Efficacy against planthoppers (rice seedling dip). It is filed as in vivo. The settings on record: Oryza sativa, 120 h, read-out: Mortality (5days later) 125 ppm. From the text:
Test Example 2: Efficacy against planthoppers
Young seedlings of rice plant at the stage of 7 days after germination were dipped for 30 seconds in the compound solution of the emulsifiable concentrate according to the recipe of Example 6 adjusted to 125 ppm concentration by diluting with water. After seedlings were dried, they were put into the inside of test tubes and 10 third instar larva of resistant-strain of planthoppers for organophosphate and carbamate insecticides were respectively inoculated in each test tube. The test tubes were shielded with gauze and allowed to stand in the incubator maintained at 25°C and 65% R.H., then the percentage killed were counted after 5 days.
`CCOC(=O)CC(SP(=S)(OC)OC)C(=O)OCC` (stereo not shown) [Comparative Compound B, Malathion, reference compound]: the mortality at 125 ppm is 0%.

`O=C1C=C(NCc2ccc(Cl)nc2)CCC1` [Compound No. 1, 1-(2-chloro-5-pyridylmethylamino)-1-cyclohexene-3-on]: the mortality at 125 ppm is 100%.

Regarding `Cc1cc(NCc2ccc(Cl)nc2)cc(=O)o1` [Compound No. 77, 4-(2-chloro-5-pyridylmethylamino)-6-methylpyran-2-on], the mortality at 125 ppm was found to be 100%.

Staying with this data set, now noted: Oryza sativa, 120 h; rice seedlings dipped 30 seconds in 125 ppm solution; 10 third instar larva per test tube; percentage killed after 5 days; 25°C, 65% R.H.; read-out: Mortality (5days later) 125 ppm.
As to `Cn1c(NCc2ccc(Cl)nc2)cc(=O)n(C)c1=O` [Compound No. 70, 4-(2-chloro-5-pyridylmethylamino)-1,3-dimethyluracil], the mortality at 125 ppm worked out at 100%.

With `Cn1c(NCc2ccc(Cl)nc2)c([N+](=O)[O-])c(=O)n(C)c1=O` [Compound No. 71, 4-(2-chloro-5-pyridylmethylamino)-1,3-dimethyl-5-nitrouracil], the mortality at 125 ppm turned out to be 100%.

As to `O=C1CCCC(NCc2ccc(Cl)nc2)=C1Cl` [compound 23], the mortality at 125 ppm came out at 100%.

`CC1CCC(NCc2ccc(Cl)nc2)=CC1=O` (stereo not shown) [compound 29]: the mortality at 125 ppm was 100%.

In the case of `CC1(C)CCC(NCc2ccc(Cl)nc2)=CC1=O` [compound 30], the mortality at 125 ppm amounted to 100%.

`CSC1CCC(NCc2ccc(Cl)nc2)=CC1=O` (stereo not shown) [compound 31]: the mortality at 125 ppm is 100%.

Turning to `CC1CC(=O)C=C(NCc2ccc(Cl)nc2)C1` (stereo not shown) [compound 34], the mortality at 125 ppm turned out to be 100%.

As to `CSC1CCC(N(C)Cc2ccc(Cl)nc2)=CC1=O` (stereo not shown) [compound 42], the mortality at 125 ppm is 100%.

Turning to `O=C1C=C(NCc2cnc(Cl)s2)CCC1` [compound 59], the mortality at 125 ppm came out at 100%.

On to `CN(Cc1cnc(Cl)s1)C1=CC(=O)CCC1` [compound 60], for which the mortality at 125 ppm is 100%.

As for `Cc1cc(NCc2ccc(Cl)nc2)c([N+](=O)[O-])c(=O)n1C` [compound 69], the mortality at 125 ppm is 100%.

Consider `CN1C(=O)C([N+](=O)[O-])=C(NCc2ccc(Cl)nc2)N(C)S1(=O)=O` [compound 73], for which the mortality at 125 ppm amounted to 100%.

As for `O=C1C=C(NCc2ccc(Cl)nc2)CCO1` [compound 74], the mortality at 125 ppm amounted to 100%.

Take `CC1CC(NCc2ccc(Cl)nc2)=CC(=O)O1` (stereo not shown) [compound 75]: the mortality at 125 ppm was 100%.

For the compound `O=C1C=C(NCc2ccc(Cl)nc2)CSC1` [compound 80], the mortality at 125 ppm worked out at 100%.

Regarding `CN(Cc1ccc(Cl)nc1)C1=CC(=O)OCC1` [compound 82], the mortality at 125 ppm is 100%.

For the compound `O=C1C=C(NCc2ccc(Cl)nc2)CO1` [compound 83], the mortality at 125 ppm was 100%.

On to `CN(Cc1ccc(Cl)nc1)C1=CC(=O)OC1` [compound 84], for which the mortality at 125 ppm stood at 100%.

In the case of `CCN(Cc1ccc(Cl)nc1)C1=CC(=O)OC1` [compound 85], the mortality at 125 ppm is 100%.

Take `CCCN(Cc1ccc(Cl)nc1)C1=CC(=O)OC1` [compound 86]: the mortality at 125 ppm turned out to be 100%.

`O=C1C=C(N(Cc2ccc(Cl)nc2)C2CC2)CO1` [compound 88]: the mortality at 125 ppm amounted to 100%.

`CC(C)CN(Cc1ccc(Cl)nc1)C1=CC(=O)OC1` [compound 89]: the mortality at 125 ppm came out at 100%.

`C=CCN(Cc1ccc(Cl)nc1)C1=CC(=O)OC1` [compound 91]: the mortality at 125 ppm is 100%.

On to `O=C1C=C(N(Cc2ccc(Cl)nc2)C(=O)C2CC2)CO1` [compound 96], for which the mortality at 125 ppm was 100%.

`CON(Cc1ccc(Cl)nc1)C1=CC(=O)OC1` [compound 98]: the mortality at 125 ppm came to 100%.

As for `O=C1OCC(NCc2ccc(Cl)nc2)=C1Br` [compound 103], the mortality at 125 ppm worked out at 100%.

In the case of `CN(Cc1ccc(Cl)nc1)C1=C(F)C(=O)OC1` [compound 104], the mortality at 125 ppm worked out at 100%.

As to `O=C1OCC(N(Cc2ccc(Cl)nc2)C2CC2)=C1F` [compound 105], the mortality at 125 ppm is 100%.

Take `O=C1C=C(NCc2ccc(Cl)nc2)CS1` [compound 111]: the mortality at 125 ppm is 100%.

With `CN(Cc1ccc(Cl)nc1)C1=CC(=O)SC1` [compound 112], the mortality at 125 ppm was determined as 100%.

Regarding `CC1OC(=O)C=C1NCc1ccc(Cl)nc1` (stereo not shown) [compound 116], the mortality at 125 ppm was found to be 100%.

For `CC1OC(=O)C=C1N(C)Cc1ccc(Cl)nc1` (stereo not shown) [compound 117], the mortality at 125 ppm amounted to 100%.

Consider `O=C1C=C(NCc2cnc(Cl)s2)CO1` [compound 143], for which the mortality at 125 ppm was determined as 100%.

For the compound `CN(Cc1cnc(Cl)s1)C1=CC(=O)OC1` [compound 144], the mortality at 125 ppm turned out to be 100%.

As to `CN1CC(NCc2ccc(Cl)nc2)=CC1=O` [compound 161], the mortality at 125 ppm was 100%.

Consider `CN(Cc1ccc(Cl)nc1)C1=CC(=O)CC1` [compound 175], for which the mortality at 125 ppm is 100%.

With `CC1=C(N(C)Cc2ccc(Cl)nc2)CCC1=O` [compound 187], the mortality at 125 ppm is 100%.

The subject of another data set is Cotton aphids. Description: Efficacy against cotton aphids (spray on cucumber leaves). The class given is in vivo. The settings on record: 125 ppm spray of emulsifiable concentrate (Example 6) on cucumber leaves; living aphids counted after 7 days, compared with the untreated plot; 25 °C, 65% R.H. As for the experimental part:
Test Example 1: Efficacy against cotton aphids
Cotton aphids were inoculated at the rate of 30-50 aphids per plot on 10 days old cucumber leaves grown in 10 cm pot by using small brush respectively. The aphids injured during inoculation were eliminated after one day, then the compound solution adjusted to 125 ppm concentration by dilution emulsifiable concentrate according to the recipe of the Example 6 with water was sprayed thereto. The aphids were allowed to stand in incubator maintained at 25 °C and 65% R.H., then counted the number of living aphids after 7 days whereby the control ratio was determined in comparison with the untreated plot.
Consider `Cc1nc(N(C)C)nc(OC(=O)N(C)C)c1C` [Comparative Compound A, Pyrimicarb, reference compound], for which the “Control E fficacy (7 days later) 125ppm” value is given as 0%.

Staying with this data set, now noted: 168 h, read-out: Control E fficacy (7 days later) 125ppm.
As to `O=C1C=C(NCc2ccc(Cl)nc2)CCC1` [Compound No. 1, 1-(2-chloro-5-pyridylmethylamino)-1-cyclohexene-3-on], the mortality at 125 ppm is 100%.

The data set is the same for the next values; noted with them: 168 h; 125 ppm spray of emulsifiable concentrate (Example 6) on cucumber leaves; living aphids counted after 7 days, compared with the untreated plot; 25 °C, 65% R.H.; read-out: Control E fficacy (7 days later) 125ppm.
Take `CC1CCC(NCc2ccc(Cl)nc2)=CC1=O` (stereo not shown) [compound 29]: the mortality at 125 ppm amounted to 100%.

In the case of `CSC1CCC(NCc2ccc(Cl)nc2)=CC1=O` (stereo not shown) [compound 31], the mortality at 125 ppm came out at 100%.

Consider `O=C1C=C(NCc2cnc(Cl)s2)CCC1` [compound 59], for which the mortality at 125 ppm turned out to be 100%.

Take `CN(Cc1cnc(Cl)s1)C1=CC(=O)CCC1` [compound 60]: the mortality at 125 ppm was determined as 100%.

On to `O=C1C=C(NCc2ccc(Cl)nc2)CCO1` [compound 74], for which the mortality at 125 ppm came out at 100%.

As for `CC1CC(NCc2ccc(Cl)nc2)=CC(=O)O1` (stereo not shown) [compound 75], the mortality at 125 ppm was found to be 100%.

In the case of `CN(Cc1ccc(Cl)nc1)C1=CC(=O)OCC1` [compound 82], the mortality at 125 ppm is 100%.

Take `O=C1C=C(NCc2ccc(Cl)nc2)CO1` [compound 83]: the mortality at 125 ppm is 100%.

As for `CN(Cc1ccc(Cl)nc1)C1=CC(=O)OC1` [compound 84], the mortality at 125 ppm was 100%.

In the case of `CCN(Cc1ccc(Cl)nc1)C1=CC(=O)OC1` [compound 85], the mortality at 125 ppm came to 100%.

Consider `CCCN(Cc1ccc(Cl)nc1)C1=CC(=O)OC1` [compound 86], for which the mortality at 125 ppm worked out at 100%.

Turning to `O=C1C=C(N(Cc2ccc(Cl)nc2)C2CC2)CO1` [compound 88], the mortality at 125 ppm was determined as 100%.

`CC(C)CN(Cc1ccc(Cl)nc1)C1=CC(=O)OC1` [compound 89]: the mortality at 125 ppm is 100%.

Consider `C=CCN(Cc1ccc(Cl)nc1)C1=CC(=O)OC1` [compound 91], for which the mortality at 125 ppm was 100%.

In the case of `CON(Cc1ccc(Cl)nc1)C1=CC(=O)OC1` [compound 98], the mortality at 125 ppm was found to be 100%.

Regarding `O=C1OCC(NCc2ccc(Cl)nc2)=C1Br` [compound 103], the mortality at 125 ppm stood at 100%.

Take `CN(Cc1ccc(Cl)nc1)C1=C(F)C(=O)OC1` [compound 104]: the mortality at 125 ppm came out at 100%.

As for `O=C1OCC(N(Cc2ccc(Cl)nc2)C2CC2)=C1F` [compound 105], the mortality at 125 ppm came to 100%.

For the compound `O=C1C=C(NCc2ccc(Cl)nc2)CS1` [compound 111], the mortality at 125 ppm was found to be 100%.

As to `CN(Cc1ccc(Cl)nc1)C1=CC(=O)SC1` [compound 112], the mortality at 125 ppm is 100%.

For `CC1OC(=O)C=C1NCc1ccc(Cl)nc1` (stereo not shown) [compound 116], the mortality at 125 ppm was 100%.

`CC1OC(=O)C=C1N(C)Cc1ccc(Cl)nc1` (stereo not shown) [compound 117]: the mortality at 125 ppm amounted to 100%.

On to `O=C1C=C(NCc2cnc(Cl)s2)CO1` [compound 143], for which the mortality at 125 ppm amounted to 100%.

As to `CN(Cc1cnc(Cl)s1)C1=CC(=O)OC1` [compound 144], the mortality at 125 ppm is 100%.

As for `CN(Cc1ccc(Cl)nc1)C1=CC(=O)CC1` [compound 175], the mortality at 125 ppm came to 100%.
